± gives the expanded uncertainty stated by the source.
How the values were obtained:
[1] = Liquid; for mass density: 298.15 K, 101.33 kPa
[2] = refractive index (Na D-line) (dimensionless); details: 298.15 K; 101.33 kPa; Liquid; Standard Abbe refractometry

Row | mass density [1] [kg/m3] | Normal boiling temperature [1] [°C] | refractive index [2] | SMILES
1 | 786.63 ± 0.63 | 64.4 ± 0.08 | 1.3264 ± 0.0007 | CO [methanol]
2 | 785.22 ± 0.64 | 78.29 ± 0.08 | 1.3592 ± 0.00073 | CCO [ethanol]
3 | 760.57 ± 0.66 | 101.42 ± 0.08 | 1.38857 ± 0.00072 | CCOC(C)(C)CC [1,1-dimethylpropyl ethyl ether]

Source: the NIST ThermoML archive (doi:10.1016/j.fluid.2005.04.003)
